For one compound, Ki results are on record in BindingDB's records for doi:10.1021/jm010566d (University Center For Pharmacy, 2002).

Molecules are shown by their SMILES.

The assay in a line: The binding affinity at 5-hydroxytryptamine 1D receptor was determined using [3H]5-CT.

For `COc1cccc2c1N1CCN(C)C[C@@H]1c1ccccc1C2` [(+)-65-Methoxy-2-methyl-1,2,3,4,9,13b-hexahydro-2,4a-diaza-tribenzo[a,c,e]cycloheptene], the Ki (usually the dissociation constant of the complex between target and ligand, obtained from inhibition or displacement) came to 1.47 µM.
